This note sets out measurements from paper PMC12550276 (Life Science Alliance, 2025).

Molecules are shown by their SMILES.

The target in assay [1] is T1, GBAv (Amydetes, UniProt A0A3F2YLV6, R337L).
T1 construct: N-terminal His6-tag kept (no cleavage told), pET28b, E. coli BL21-CodonPlus-RIL; ~550 residues; monomer by SEC
Kind of assay: HDX-MS, apo vs ligand-bound. The format is binding. Conditions: 5 mM ATP together with 5 mM luciferin (not separable), 50 mM MgCl2, pD 7.5, 25°C.

Assay [2] deals with T2, REPh (Phrixothrix hirtus, UniProt Q9U4U7, L334R).
T2 construct: N-terminal His6-tag kept (no cleavage told), pET28b, E. coli BL21-CodonPlus-RIL; ~550 residues; higher oligomer by SEC (octamer in crystal)
T2 sequence (Q9U4U7 1-546 L334R): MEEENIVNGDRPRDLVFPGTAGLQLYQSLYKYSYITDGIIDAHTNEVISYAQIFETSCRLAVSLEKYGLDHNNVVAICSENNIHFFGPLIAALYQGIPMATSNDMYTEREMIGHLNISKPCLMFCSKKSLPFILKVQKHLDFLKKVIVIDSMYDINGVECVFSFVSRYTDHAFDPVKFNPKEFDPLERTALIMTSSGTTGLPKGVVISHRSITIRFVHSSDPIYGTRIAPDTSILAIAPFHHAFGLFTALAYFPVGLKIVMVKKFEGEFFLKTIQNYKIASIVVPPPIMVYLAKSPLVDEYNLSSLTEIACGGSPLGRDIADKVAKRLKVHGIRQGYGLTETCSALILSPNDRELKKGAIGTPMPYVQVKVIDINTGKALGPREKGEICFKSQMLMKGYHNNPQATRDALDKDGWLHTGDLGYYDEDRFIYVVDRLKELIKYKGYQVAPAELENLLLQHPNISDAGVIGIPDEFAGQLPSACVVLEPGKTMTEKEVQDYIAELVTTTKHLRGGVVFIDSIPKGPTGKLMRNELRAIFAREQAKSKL
Nature of the assay: HDX-MS, apo vs ligand-bound. Conditions: 5 mM ATP together with 5 mM luciferin (not separable), 50 mM MgCl2, pD 7.5, 25°C. The format is binding.

T1 sequence (A0A3F2YLV6 entry or part of it R337L): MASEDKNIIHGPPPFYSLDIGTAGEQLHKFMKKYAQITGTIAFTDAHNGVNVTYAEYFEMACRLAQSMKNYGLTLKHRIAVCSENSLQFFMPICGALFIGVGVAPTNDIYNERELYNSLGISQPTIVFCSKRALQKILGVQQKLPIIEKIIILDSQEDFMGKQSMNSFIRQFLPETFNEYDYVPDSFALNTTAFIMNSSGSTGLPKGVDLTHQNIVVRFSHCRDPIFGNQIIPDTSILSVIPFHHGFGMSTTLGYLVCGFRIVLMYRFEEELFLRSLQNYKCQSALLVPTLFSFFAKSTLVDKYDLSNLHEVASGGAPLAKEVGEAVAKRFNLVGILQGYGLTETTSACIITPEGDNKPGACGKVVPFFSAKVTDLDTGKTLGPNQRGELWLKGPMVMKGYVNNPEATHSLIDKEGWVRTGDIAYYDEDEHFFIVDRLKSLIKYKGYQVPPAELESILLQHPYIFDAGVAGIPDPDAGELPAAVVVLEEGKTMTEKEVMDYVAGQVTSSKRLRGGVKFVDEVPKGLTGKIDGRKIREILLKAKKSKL

As to `Nc1ncnc2c1ncn2[C@@H]1O[C@H](COP(=O)(O)OP(=O)(O)OP(=O)(O)O)[C@@H](O)[C@H]1O` [ATP], the “HDX-MS, apo vs ligand-bound” value in assay [1] was “Upon substrate binding, deuterium uptake by peptides-2 and -3 decreased in all variants”; in assay [2], “Upon substrate binding, deuterium uptake by peptides-2 and -3 decreased in all variants”.
